Laboratory results from ChEMBL document CHEMBL1145148, “Discovery of (2S)-N-[(1R)-2-[4-cyclohexyl-4-[[(1,1-dimethylethyl)amino]carbonyl]-1-piperidinyl]-1-[(4-fluorophenyl)methyl]-2-oxoethyl]-4-methyl-2-piperazinecarboxamide (MB243), a potent and selective melanocortin subtype-4 receptor agonist” (Bioorg Med Chem Lett, 2005).
Where “and” joins values, the source holds several entries; their conditions need not be identical. Equal entries are not always repeated. Blank lines part the entries; values can stand above or below the compound they belong to.

Experiments:
[1] = molecular target: T1, Melanocortin receptor 5 (Homo sapiens, UniProt P33032); assay: Effective concentration towards human melanocortin-5 receptor mediated cAMP accumulation in CHO cells; type: functional, cell-based
T1 sequence (P33032 whole entry): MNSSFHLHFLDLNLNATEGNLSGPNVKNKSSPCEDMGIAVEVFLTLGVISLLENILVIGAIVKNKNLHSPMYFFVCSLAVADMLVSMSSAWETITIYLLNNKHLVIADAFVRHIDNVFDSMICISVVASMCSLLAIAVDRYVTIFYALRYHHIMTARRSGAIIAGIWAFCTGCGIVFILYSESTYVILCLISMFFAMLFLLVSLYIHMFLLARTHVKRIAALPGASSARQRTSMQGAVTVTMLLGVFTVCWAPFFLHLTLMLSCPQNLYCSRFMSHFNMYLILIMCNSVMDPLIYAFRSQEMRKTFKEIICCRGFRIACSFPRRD

[2] = molecular target: T2, Melanocortin receptor 4 (Homo sapiens, UniProt P32245); assay: Effective concentration towards human melanocortin-4 receptor mediated cAMP accumulation in CHO cells; type: functional, cell-based
T2 sequence (P32245 whole entry): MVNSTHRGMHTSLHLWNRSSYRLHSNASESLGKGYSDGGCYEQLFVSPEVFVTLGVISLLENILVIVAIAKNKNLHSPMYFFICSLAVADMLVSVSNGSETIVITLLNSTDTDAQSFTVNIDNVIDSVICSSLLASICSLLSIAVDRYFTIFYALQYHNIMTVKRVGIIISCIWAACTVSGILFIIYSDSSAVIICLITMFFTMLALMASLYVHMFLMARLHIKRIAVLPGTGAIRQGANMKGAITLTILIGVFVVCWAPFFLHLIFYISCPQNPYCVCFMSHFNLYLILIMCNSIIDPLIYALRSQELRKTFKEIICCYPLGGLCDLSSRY

[3] = molecular target: T1, Melanocortin receptor 5; assay: Concentration of compound at 50% maximum cAMP accumulation at human melanocortin-5 receptor; type: functional
[4] = molecular target: T2, Melanocortin receptor 4; assay: Concentration for 50% inhibition of human melanocortin-4 receptor expressed in CHO cells using [125I]NDP-alpha-MSH as radioligand; type: cell-based
[5] = molecular target: T3, Melanocortin receptor 3 (Homo sapiens, UniProt P41968); assay: Concentration of compound at 50% maximum cAMP accumulation at human melanocortin-3 receptor; type: functional
T3 sequence (P41968 whole entry): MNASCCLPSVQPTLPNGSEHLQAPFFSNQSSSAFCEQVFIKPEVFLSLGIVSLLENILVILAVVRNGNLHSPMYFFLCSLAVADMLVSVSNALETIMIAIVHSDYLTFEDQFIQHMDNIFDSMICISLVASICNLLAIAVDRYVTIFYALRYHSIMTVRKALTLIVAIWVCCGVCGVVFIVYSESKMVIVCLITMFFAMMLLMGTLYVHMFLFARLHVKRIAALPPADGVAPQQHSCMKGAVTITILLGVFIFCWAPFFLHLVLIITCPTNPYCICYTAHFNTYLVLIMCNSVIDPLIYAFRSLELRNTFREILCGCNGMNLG

[6] = molecular target: T3, Melanocortin receptor 3; assay: Effective concentration towards human melanocortin-3 receptor mediated cAMP accumulation in CHO cells; type: functional, cell-based, Rattus norvegicus
[7] = Percent bioavailability at 0.5 mg/kg intravenous administration and 2 mg/kg peroral administration; type: ADME, organism-based, Canis lupus familiaris; details: dog, in vivo, po
[8] = Clearance at 1 mg/kg intravenous administration and 2 mg/kg peroral administration; type: ADME, organism-based; details: cercopithecidae, in vivo
[9] = Clearance at 1 mg/kg intravenous administration and 5 mg/kg peroral administration; type: ADME, organism-based; details: rat, in vivo
[10] = Half life at 1 mg/kg intravenous administration and 2 mg/kg peroral administration; type: ADME, organism-based; details: cercopithecidae, in vivo
[11] = Vdss at 1 mg/kg intravenous administration and 5 mg/kg peroral administration; type: ADME, organism-based; details: rat, in vivo, read-out: Vdss
[12] = molecular target: Melanocortin receptor 4 (Rattus norvegicus) (UniProt P70596); assay: Concentration of compound at 50% maximum cAMP accumulation at rat melanocortin-4 receptor; type: functional
Chain of Melanocortin receptor 4 (Rattus norvegicus) (P70596 whole entry): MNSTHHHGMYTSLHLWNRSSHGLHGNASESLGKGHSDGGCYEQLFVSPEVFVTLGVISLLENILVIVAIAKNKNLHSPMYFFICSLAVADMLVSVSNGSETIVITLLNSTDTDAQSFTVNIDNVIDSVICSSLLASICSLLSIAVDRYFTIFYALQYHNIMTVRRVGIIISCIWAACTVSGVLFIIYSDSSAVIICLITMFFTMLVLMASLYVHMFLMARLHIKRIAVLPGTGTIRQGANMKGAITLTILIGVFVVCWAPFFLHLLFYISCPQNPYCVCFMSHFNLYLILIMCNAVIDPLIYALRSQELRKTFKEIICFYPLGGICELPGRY

[13] = Percentage of cAMP accumulation at 10 uM of compound relative toa-MSH was determined; type: functional
[14] = molecular target: Melanocortin receptor 3 (Rattus norvegicus) (UniProt P32244); assay: Concentration of compound at 50% maximum cAMP accumulation at rat melanocortin-3 receptor; type: functional
Chain of Melanocortin receptor 3 (Rattus norvegicus) (P32244 whole entry): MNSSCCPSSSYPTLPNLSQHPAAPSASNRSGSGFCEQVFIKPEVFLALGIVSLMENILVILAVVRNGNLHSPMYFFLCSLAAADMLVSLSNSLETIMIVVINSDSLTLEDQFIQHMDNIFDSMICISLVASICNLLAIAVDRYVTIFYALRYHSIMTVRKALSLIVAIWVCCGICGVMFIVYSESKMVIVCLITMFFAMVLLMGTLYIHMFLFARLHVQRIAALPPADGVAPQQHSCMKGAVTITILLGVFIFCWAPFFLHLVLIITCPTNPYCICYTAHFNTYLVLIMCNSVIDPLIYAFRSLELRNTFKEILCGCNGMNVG

[15] = molecular target: T4, Melanocyte-stimulating hormone receptor (Homo sapiens, UniProt Q01726); assay: Concentration of compound at 50% maximum cAMP accumulation at human melanocortin-1 receptor; type: functional
Target sequence in this assay (Q01726 whole entry, looked up): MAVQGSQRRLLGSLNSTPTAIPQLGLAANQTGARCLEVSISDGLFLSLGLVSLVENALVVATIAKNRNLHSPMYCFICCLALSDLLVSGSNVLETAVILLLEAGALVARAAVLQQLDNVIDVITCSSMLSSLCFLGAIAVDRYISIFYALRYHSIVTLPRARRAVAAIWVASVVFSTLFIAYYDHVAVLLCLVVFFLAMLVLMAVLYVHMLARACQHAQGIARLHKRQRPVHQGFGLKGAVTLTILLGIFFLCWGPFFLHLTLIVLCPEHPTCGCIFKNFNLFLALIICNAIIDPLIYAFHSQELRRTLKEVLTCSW

[16] = Maximum time taken by the compound at 0.5 mg/kg intravenous administration and 2 mg/kg peroral administration; type: ADME, organism-based, Canis lupus familiaris; details: dog, in vivo, po
[17] = Percent bioavailability at 1 mg/kg intravenous administration and 5 mg/kg peroral administration; type: ADME, organism-based; details: rat, in vivo, po
[18] = molecular target: T4, Melanocyte-stimulating hormone receptor; assay: Effective concentration towards human melanocortin-1 receptor mediated cAMP accumulation in CHO cells; type: functional, cell-based
Target sequence in this assay (Q01726 whole entry): as the sequence (Q01726 whole entry, looked up) above

[19] = molecular target: T1, Melanocortin receptor 5; assay: Concentration for 50% inhibition of human melanocortin-5 receptor expressed in CHO cells using [125I]NDP-alpha-MSH as radioligand; type: cell-based
[20] = Vdss at 0.5 mg/kg intravenous administration and 2 mg/kg peroral administration; type: ADME, organism-based, Canis lupus familiaris; details: dog, in vivo, read-out: Vdss
[21] = Half life at 0.5 mg/kg intravenous administration and 2 mg/kg peroral administration; type: ADME, organism-based, Canis lupus familiaris; details: dog, in vivo
[22] = molecular target: Melanocortin receptor 4 (Mus musculus) (UniProt P56450); assay: Concentration of compound at 50% maximum cAMP accumulation at mouse melanocortin-4 receptor; type: functional
Chain of Melanocortin receptor 4 (Mus musculus) (P56450 whole entry): as the sequence (P70596 whole entry) above, with H21Y, S36P, T199S, A239T, P329S, G330S counted along it

[23] = Percent bioavailability at 1 mg/kg intravenous administration and 2 mg/kg peroral administration; type: ADME, organism-based; details: cercopithecidae, in vivo, po
[24] = Maximum time taken by the compound at 1 mg/kg intravenous administration and 5 mg/kg peroral administration; type: ADME, organism-based; details: rat, in vivo, po
[25] = Vdss at 1 mg/kg intravenous administration and 2 mg/kg peroral administration; type: ADME, organism-based; details: cercopithecidae, in vivo, read-out: Vdss
[26] = molecular target: T3, Melanocortin receptor 3; assay: Concentration for 50% inhibition of human melanocortin-3 receptor expressed in CHO cells using [125I]NDP-alpha-MSH as radioligand; type: cell-based
[27] = tested on: Rattus norvegicus; assay: Percent increase in erectile activity in rats after intravenous administration of 3 mg/kg compound; type: functional
[28] = Maximum time taken by the compound at 1 mg/kg intravenous administration and 2 mg/kg peroral administration; type: ADME, organism-based; details: cercopithecidae, in vivo, po
[29] = Clearance at 0.5 mg/kg intravenous administration and 2 mg/kg peroral administration; type: ADME, organism-based, Canis lupus familiaris; details: dog, in vivo
[30] = molecular target: T4, Melanocyte-stimulating hormone receptor; assay: Concentration for 50% inhibition of human melanocortin-1 receptor expressed in CHO cells using [125I]-NDP-alpha-MSH as radioligand; type: cell-based
Target sequence in this assay (Q01726 whole entry): as the sequence (Q01726 whole entry, looked up) above

[31] = Half life at 1 mg/kg intravenous administration and 5 mg/kg peroral administration; type: ADME, organism-based; details: rat, in vivo

SMILES: CCN1CCN[C@H](C(=O)N[C@H](Cc2ccc(F)cc2)C(=O)N2CCC(C(=O)NC(C)(C)C)(C3CCCCC3)CC2)C1
EC50 [1]: 840 nM | EC50 [2]: 52 nM | cAMP accumulation [3]: 20% | IC50 [4]: 20 nM | cAMP accumulation [5]: 3%

SMILES: CC(C)(C)NC(=O)C1(C2CCCCC2)CCN(C(=O)[C@@H](Cc2ccc(F)cc2)NC(=O)[C@@H]2CN(CC(F)F)CCN2)CC1
EC50 [1]: 510 nM | EC50 [2]: 52 nM | cAMP accumulation [3]: 19% | IC50 [4]: 13 nM | cAMP accumulation [5]: 6%

SMILES: CC(C)(C)NC(=O)C1(C2CCCCC2)CCN(C(=O)[C@@H](Cc2ccc(F)cc2)NC(=O)[C@@H]2CNCCN2C(=O)OC(C)(C)C)CC1
EC50 [1]: 1800 nM | EC50 [2]: 13 nM | cAMP accumulation [3]: 43% | IC50 [4]: 18 nM | cAMP accumulation [5]: 10%

SMILES: CN1CCNC[C@H]1C(=O)N[C@H](Cc1ccc(F)cc1)C(=O)N1CCC(C(=O)NC(C)(C)C)(C2CCCCC2)CC1
EC50 [6]: 2900 nM | EC50 [1]: 3300 nM | EC50 [2]: 29 nM | cAMP accumulation [3]: 19% | IC50 [4]: 87 nM | cAMP accumulation [5]: 19%

SMILES: CN1CCN[C@H](C(=O)N[C@H](Cc2ccc(F)cc2)C(=O)N2CCC(C(=O)NC(C)(C)C)(C3CCCCC3)CC2)C1
bioavailability [7]: 17% | clearance [8]: 15.7 mL/min/kg | clearance [9]: 48.7 mL/min/kg | EC50 [6]: 990 nM | half-life [10]: 1.3 h | Vd [11]: 5.4 L/kg | cAMP accumulation [12]: 76% | Activation [13]: 4% and 7% and 11% | cAMP accumulation [14]: 21% | cAMP accumulation [15]: 85% | Tmax [16]: 0.75 h | bioavailability [17]: 9% | EC50 [18]: 350 nM | EC50 [1]: 1900 nM | EC50 ([1]; cho): 1900 nM | IC50 [19]: 2400 nM and 13000 nM | Vd [20]: 1.2 L/kg | EC50 [2]: 11 nM (2×) and 6 nM and 16 nM | half-life [21]: 4.1 h | cAMP accumulation [3]: 32% | cAMP accumulation [22]: 66% | bioavailability [23]: 11% | Tmax [24]: 1.54 h | Vd [25]: 1.2 L/kg | IC50 [26]: 2300 nM and 1100 nM and 1600 nM | Activity [27]: 21.2% | IC50 [4]: 8 nM and 7 nM and 16 nM (2×) | Tmax [28]: 5 h | clearance [29]: 5.6 mL/min/kg | IC50 [30]: 1700 nM | cAMP accumulation [5]: 11% | half-life [31]: 1.6 h

Results, then the compound that gave them:

EC50 [1]: 2700 nM | EC50 [2]: 82 nM | cAMP accumulation [3]: 39% | IC50 [4]: 52 nM | cAMP accumulation [5]: 7%
SMILES: CN1CCN[C@@H](C(=O)N[C@H](Cc2ccc(F)cc2)C(=O)N2CCC(C(=O)NC(C)(C)C)(C3CCCCC3)CC2)C1

EC50 [1]: 2000 nM | EC50 [2]: 270 nM | cAMP accumulation [3]: 27% | IC50 [4]: 30 nM | cAMP accumulation [5]: 12%
SMILES: C[C@H](N)C(=O)N1CCN[C@H](C(=O)N[C@H](Cc2ccc(F)cc2)C(=O)N2CCC(C(=O)NC(C)(C)C)(C3CCCCC3)CC2)C1

EC50 [1]: 340 nM | EC50 [2]: 34 nM | cAMP accumulation [3]: 22% | IC50 [4]: 8 nM | cAMP accumulation [5]: 19%
SMILES: CC(C)CN1CCN[C@H](C(=O)N[C@H](Cc2ccc(F)cc2)C(=O)N2CCC(C(=O)NC(C)(C)C)(C3CCCCC3)CC2)C1

cAMP accumulation [3]: 3% | cAMP accumulation [5]: 1%
SMILES: CN1CCN[C@H](C(=O)N[C@@H](Cc2ccc(F)cc2)C(=O)N2CCC(C(=O)NC(C)(C)C)(C3CCCCC3)CC2)C1
